The source of these data is patent US20230271954A1 (Gossamer Bio Services, Inc., priority 2020, published 2023).

In one assay the target is DGKα (Homo sapiens, UniProt P23743). In words: DGKα biochemical assay (ADP-Glo). Conditions: read-out: DGK α IC50. Put shortly: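 ADP-Glo kinase assay using OAG/PS (1:2) lipid substrate, sonicated, in HEPES pH 7.0 buffer with MgCl2, CaCl2, DTT, BSA, Triton X-100. Enzyme preincubated with compound 30 min at RT; substrate with ATP (DGKα: 400 μM) added, 45 min RT. Luminescence read; % inhibition vs DMSO and no-enzyme controls.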
Sequence of DGKα (P23743 whole entry): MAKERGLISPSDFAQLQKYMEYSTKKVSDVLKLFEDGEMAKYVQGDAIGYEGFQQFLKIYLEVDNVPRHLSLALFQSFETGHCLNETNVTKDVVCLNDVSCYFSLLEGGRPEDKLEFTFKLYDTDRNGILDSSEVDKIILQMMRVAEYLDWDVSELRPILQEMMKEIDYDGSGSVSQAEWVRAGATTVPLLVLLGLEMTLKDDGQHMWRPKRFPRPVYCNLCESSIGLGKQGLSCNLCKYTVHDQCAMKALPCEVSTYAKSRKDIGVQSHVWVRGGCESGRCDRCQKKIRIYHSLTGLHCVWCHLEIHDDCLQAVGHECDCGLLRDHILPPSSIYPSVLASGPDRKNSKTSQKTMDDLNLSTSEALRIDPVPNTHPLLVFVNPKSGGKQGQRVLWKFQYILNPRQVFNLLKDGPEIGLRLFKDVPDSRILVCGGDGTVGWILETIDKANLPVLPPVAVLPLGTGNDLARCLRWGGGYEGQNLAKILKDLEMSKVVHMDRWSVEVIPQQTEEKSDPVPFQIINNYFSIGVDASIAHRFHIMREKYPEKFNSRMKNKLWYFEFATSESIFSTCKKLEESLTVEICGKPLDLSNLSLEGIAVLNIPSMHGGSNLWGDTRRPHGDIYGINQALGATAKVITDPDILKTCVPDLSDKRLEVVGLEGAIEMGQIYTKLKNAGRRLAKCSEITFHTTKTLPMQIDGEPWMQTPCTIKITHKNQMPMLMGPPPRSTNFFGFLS

Another assay has as its target T1, DGKζ (Homo sapiens, UniProt Q13574).
T1 construct: purchased Carna 12-110
The experiment in a line: DGKζ biochemical assay (ADP-Glo). Conditions: read-out: DGK ζ IC50. For orientation: In ADP-Glo the light output rises with the ADP produced.

pIC50: −log10 of the molar value.

T1 sequence (Q13574 1-929 isoform Q13574-4): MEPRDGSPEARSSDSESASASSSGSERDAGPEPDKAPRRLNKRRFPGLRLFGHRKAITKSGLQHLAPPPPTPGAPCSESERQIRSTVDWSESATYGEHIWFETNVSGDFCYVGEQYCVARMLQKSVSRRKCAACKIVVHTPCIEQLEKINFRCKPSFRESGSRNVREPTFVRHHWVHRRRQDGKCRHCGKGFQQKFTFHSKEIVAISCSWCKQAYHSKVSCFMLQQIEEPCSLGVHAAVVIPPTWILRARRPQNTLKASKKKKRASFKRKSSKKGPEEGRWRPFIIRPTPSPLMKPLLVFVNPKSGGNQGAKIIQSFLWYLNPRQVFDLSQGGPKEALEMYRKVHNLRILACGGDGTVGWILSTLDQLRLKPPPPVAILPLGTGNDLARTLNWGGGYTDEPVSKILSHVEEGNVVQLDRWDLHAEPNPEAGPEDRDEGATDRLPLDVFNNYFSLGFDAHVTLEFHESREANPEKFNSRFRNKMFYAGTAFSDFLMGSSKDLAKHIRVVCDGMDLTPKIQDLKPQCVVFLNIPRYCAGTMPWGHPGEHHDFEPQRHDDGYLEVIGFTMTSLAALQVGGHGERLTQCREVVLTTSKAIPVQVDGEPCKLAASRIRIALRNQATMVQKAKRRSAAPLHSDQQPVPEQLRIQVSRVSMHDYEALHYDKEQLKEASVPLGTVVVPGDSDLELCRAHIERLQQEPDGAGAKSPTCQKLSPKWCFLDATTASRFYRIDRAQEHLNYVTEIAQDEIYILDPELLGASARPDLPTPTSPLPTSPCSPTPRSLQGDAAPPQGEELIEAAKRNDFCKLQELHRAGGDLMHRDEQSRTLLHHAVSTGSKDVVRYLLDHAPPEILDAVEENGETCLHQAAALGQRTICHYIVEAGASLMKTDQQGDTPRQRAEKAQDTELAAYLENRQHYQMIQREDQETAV

In the case of `Cn1c(=O)c(C#N)c(N(C)[C@H]2CC[C@@H](N(CC3CC3)c3cccc4c3oc(=O)n4C)CC2)c2nc(C#N)ccc21` [Example 200, cis-8-((-4-((cyclopropylmethyl)(3-methyl-2-oxo-2,3-dihydrobenzo[d]oxazol-7-yl)amino)cyclohexyl) (methyl)amino)-5-methyl-6-oxo-5,6-dihydro-1,5-naphthyridine-2,7-dicarbonitrile], the pIC50 at DGKα and on DGKζ was at most 6.00 each time.
As for `Cn1c(=O)c(C#N)c(N(C)[C@H]2CC[C@H](N(CC3CC3)c3ccc(F)c(OC(F)F)c3)CC2)c2nc(C#N)ccc21` [Example 76], the negative logarithm of the IC50 (pIC50) at DGKα and on DGKζ was 6.00 to 7.00 each time.
In the case of `Cc1cc(F)c(F)cc1N(CC1CCC1)[C@H]1CC[C@H](N(C)c2c(C#N)c(=O)n(C)c3ccc(C#N)nc23)CC1` [Example 138, trans-8-((4-((cyclobutylmethyl)(4,5-difluoro-2-methylphenyl)amino)cyclohexyl)(methyl)amino)-5-methyl-6-oxo-5,6-dihydro-1,5-naphthyridine-2,7-dicarbonitrile], the pIC50 at DGKα and at DGKζ was at most 6.00 throughout.
For the compound `Cn1c(=O)cc(N(C)[C@H]2CC[C@@H](N(CC3CCC3)c3cc(F)cc(F)c3)CC2)c2nc(C#N)ccc21` [Example 134, cis-8-((-4-((cyclobutylmethyl)(3,5-difluorophenyl)amino)cyclohexyl)(methyl)amino)-5-methyl-6-oxo-5,6-dihydro-1,5-naphthyridine-2-carbonitrile], the pIC50 at DGKα is 7.00 to 8.00; on DGKζ, 6.00 to 7.00.
For `Cc1cc(F)ccc1N(CC1CC1)[C@H]1CC[C@@H](N(C)c2cc(=O)n(C)c3ccc(C#N)nc23)CC1` [Example 144, cis-8-((4-((cyclopropylmethyl)(4-fluoro-2-methylphenyl)amino)cyclohexyl)(methyl)amino)-5-methyl-6-oxo-5,6-dihydro-1,5-naphthyridine-2-carbonitrile], in that order: 6.00 to 7.00 and 6.00 to 7.00.
Regarding `Cn1c(=O)cc(N(C)[C@H]2CC[C@@H](N(CC3COCCO3)c3ccc4c(c3)OCO4)CC2)c2nc(C#N)ccc21` (stereo partly drawn) [Example 181, cis-8-((4-(((1,4-dioxan-2-yl)methyl)(benzo[d][1,3]dioxol-5-yl)amino)cyclohexyl)(methyl)amino)-5-methyl-6-oxo-5,6-dihydro-1,5-naphthyridine-2-carbonitrile], the pIC50 on DGKα is 7.00 to 8.00; at DGKζ, 6.00 to 7.00.
In the case of `Cn1c(=O)c(C#N)c(N(C)[C@H]2CC[C@@H](N(CC3CCCOC3)c3ccc(F)cc3)CC2)c2nc(C#N)ccc21` (relative stereo) [Example 57, cis-8-((4-((4-fluorophenyl)((tetrahydro-2H-pyran-3-yl)methyl)amino)cyclohexyl)(methyl)amino)-5-methyl-6-oxo-5,6-dihydro-1,5-naphthyridine-2,7-dicarbonitrile], the pIC50 on DGKα is over 8.00; on DGKζ, 7.00 to 8.00.
For `Cc1cc2c(cc1N(CC1CCC1)[C@H]1CC[C@@H](N(C)c3c(C#N)c(=O)n(C)c4ccc(Cl)nc34)CC1)OCO2` [Example 151, cis-6-chloro-4-((4-((cyclobutylmethyl)(6-methylbenzo[d][1,3]dioxol-5-yl)amino)cyclohexyl) (methyl)amino)-1-methyl-2-oxo-1,2-dihydro-1,5-naphthyridine-3-carbonitrile], in that order: at most 6.00 and at most 6.00.
In the case of `Cc1cc(F)ccc1N(CC1CCC1)[C@H]1CC[C@H](N(C)c2c(C#N)c(=O)n(C)c3ccc(C#N)nc23)CC1` [Example 106, trans-8-((4-((cyclobutylmethyl)(4-fluoro-2-methylphenyl)amino)cyclohexyl)(methyl)amino)-5-methyl-6-oxo-5,6-dihydro-1,5-naphthyridine-2,7-dicarbonitrile], the negative-log IC50 (pIC50) on DGKα and on DGKζ was 6.00 to 7.00 in each case.
For `Cc1ccc(N(CC2CCC2)[C@H]2CC[C@@H](N(C)c3c(C#N)c(=O)n(C)c4ccc(C#N)nc34)CC2)cc1OC(F)F` [Example 148, cis-8-((-4-((cyclobutylmethyl)(3-(difluoromethoxy)-4-methylphenyl)amino)cyclohexyl)(methyl)amino)-5-methyl-6-oxo-5,6-dihydro-1,5-naphthyridine-2,7-dicarbonitrile], the pIC50 at DGKα and at DGKζ was 7.00 to 8.00 in each case.
In the case of `Cn1c(=O)cc(N(C)[C@H]2CC[C@@H](N(CC3CC3)c3ccc(Cl)cc3)CC2)c2nc(C#N)ccc21` [Example 7, cis-8-((4-((4-chlorophenyl)(cyclopropylmethyl)amino)cyclohexyl)(methyl)amino)-5-methyl-6-oxo-5,6-dihydro-1,5-naphthyridine-2-carbonitrile], the pIC50 at DGKα was 7.00 to 8.00; at DGKζ, at most 6.00.
For `Cn1c(=O)cc(N(C)[C@H]2CC[C@@H](N(c3ccc(F)cc3)C3CC3)CC2)c2nc(C#N)ccc21` [Example 49, cis-8-((4-(cyclopropyl(4-fluorophenyl)amino)cyclohexyl)(methyl)amino)-5-methyl-6-oxo-5,6-dihydro-1,5-naphthyridine-2-carbonitrile], in that order: over 8.00 and 6.00 to 7.00.
Regarding `Cn1c(=O)c(C#N)c(N(C)[C@H]2CC[C@H](N(CC3CC3)c3ccc(F)cc3)CC2)c2nc(C#N)ccc21` [Example 54, trans-8-((4-((cyclopropylmethyl)(4-fluorophenyl)amino)cyclohexyl)(methyl)amino)-5-methyl-6-oxo-5,6-dihydro-1,5-naphthyridine-2,7-dicarbonitrile], the pIC50 on DGKα and on DGKζ was 6.00 to 7.00 throughout.
As for `Cn1c(=O)c(C#N)c(N(C)[C@H]2CC[C@@H](N(CC3CCC3)c3cccc4c3OCO4)CC2)c2nc(Cl)ccc21` [Example 110, cis-4-((-4-(benzo[d][1,3]dioxol-4-yl(cyclobutylmethyl)amino)cyclohexyl)(methyl)amino)-6-chloro-1-methyl-2-oxo-1,2-dihydro-1,5-naphthyridine-3-carbonitrile], the values for the pIC50 at DGKα and at DGKζ were 7.00 to 8.00 and 6.00 to 7.00, respectively.
Take `Cc1ccccc1N(CC1CC1)[C@H]1CC[C@H](N(C)c2c(C#N)c(=O)n(C)c3ccc(C#N)nc23)CC1` [Example 71, trans-8-((4-((cyclopropylmethyl)(o-tolyl)amino)cyclohexyl)(methyl)amino)-5-methyl-6-oxo-5,6-dihydro-1,5-naphthyridine-2,7-dicarbonitrile]: the pIC50 on DGKα was at most 6.00; on DGKζ it was 7.00 to 8.00.

For orientation: pIC50 means the IC50 on a negative log10 scale, so that one unit is a factor of ten.
